Source: ChEMBL document CHEMBL5696441 (Nat Chem Biol, 2011)

How the values were obtained:
[1] = target: Mitogen-activated protein kinase kinase kinase 2 (Homo sapiens) (UniProt Q9Y2U5); experiment: Inhibition of MAP3K2 (unknown origin) assessed as remaining activity at 1 uM by Kinome scan method relative to control
[2] = test system: Hepatocyte growth factor receptor (Homo sapiens), P08581 [M1250T]; experiment: Inhibition of human MET M1250T mutant assessed as residual activity at 1 uM using poly(Ala,Glu,Lys,Tyr)6:2:5:1 as substrate in presence of 33P-ATP by ProQinase assay relative to control
[3] = Anti-inflammatory activity against human derived high respond PBMC cells assessed as inhibition in stimulated TARC chemokine release incubated for 2 hrs in the presence of LPS/SEB/aCD28 by Luminex based sandwich immunoassay; format: functional, cell-based
[4] = target: Non-receptor tyrosine-protein kinase TYK2 (Homo sapiens) (UniProt P29597); experiment: Inhibition of human TYK2 assessed as residual activity at 1 uM using poly(Ala,Glu,Lys,Tyr)6:2:5:1 as substrate in presence of 33P-ATP by ProQinase assay relative to control
Chain of Non-receptor tyrosine-protein kinase TYK2 (Homo sapiens) (P29597 whole entry, the tested form may be a part): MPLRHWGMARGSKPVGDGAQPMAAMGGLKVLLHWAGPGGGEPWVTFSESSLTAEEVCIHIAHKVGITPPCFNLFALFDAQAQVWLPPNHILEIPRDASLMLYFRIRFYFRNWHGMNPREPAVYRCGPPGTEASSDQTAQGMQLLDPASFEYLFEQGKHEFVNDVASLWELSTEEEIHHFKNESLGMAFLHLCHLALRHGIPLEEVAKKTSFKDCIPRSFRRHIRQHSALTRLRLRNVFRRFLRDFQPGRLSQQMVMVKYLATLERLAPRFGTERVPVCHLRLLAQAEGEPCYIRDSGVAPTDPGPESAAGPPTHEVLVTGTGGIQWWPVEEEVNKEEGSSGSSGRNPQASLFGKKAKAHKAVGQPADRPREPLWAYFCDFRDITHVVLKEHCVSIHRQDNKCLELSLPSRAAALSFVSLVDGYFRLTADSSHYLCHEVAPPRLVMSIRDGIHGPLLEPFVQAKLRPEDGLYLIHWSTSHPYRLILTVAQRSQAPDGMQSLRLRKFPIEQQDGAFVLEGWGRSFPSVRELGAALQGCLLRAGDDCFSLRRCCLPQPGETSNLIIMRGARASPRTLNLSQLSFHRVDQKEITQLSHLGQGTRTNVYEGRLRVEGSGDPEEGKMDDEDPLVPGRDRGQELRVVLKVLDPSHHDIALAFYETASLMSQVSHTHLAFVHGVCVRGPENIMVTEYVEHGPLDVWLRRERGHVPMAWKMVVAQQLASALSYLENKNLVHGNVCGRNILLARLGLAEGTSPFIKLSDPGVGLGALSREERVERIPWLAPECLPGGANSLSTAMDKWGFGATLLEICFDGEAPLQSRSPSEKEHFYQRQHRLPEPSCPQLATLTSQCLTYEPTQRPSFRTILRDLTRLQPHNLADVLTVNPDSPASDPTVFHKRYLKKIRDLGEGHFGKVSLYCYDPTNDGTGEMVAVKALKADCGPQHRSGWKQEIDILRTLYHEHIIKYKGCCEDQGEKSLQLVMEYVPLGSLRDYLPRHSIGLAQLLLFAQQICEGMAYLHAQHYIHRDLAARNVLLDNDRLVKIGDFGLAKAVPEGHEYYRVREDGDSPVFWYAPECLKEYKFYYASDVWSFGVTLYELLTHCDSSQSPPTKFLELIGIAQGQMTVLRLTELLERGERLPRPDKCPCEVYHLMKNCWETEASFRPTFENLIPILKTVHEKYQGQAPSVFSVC

[5] = target: SRSF protein kinase 3 (Homo sapiens) (UniProt Q9UPE1); experiment: Inhibition of SRPK3 (unknown origin) assessed as remaining activity at 1 uM by Kinome scan method relative to control
[6] = target: Serine/threonine-protein kinase PAK 5 (Homo sapiens) (UniProt Q9P286); experiment: Inhibition of human PAK7 assessed as residual activity at 1 uM using bio-4xCHKT as substrate in presence of 33P-ATP by ProQinase assay relative to control
[7] = test system: Dual specificity mitogen-activated protein kinase kinase 6 (Homo sapiens), P52564 [S207D,T211D]; experiment: Inhibition of human MKK6 S207D/T211D double mutant assessed as residual activity at 1 uM using p38-alpha KA as substrate in presence of 33P-ATP by ProQinase assay relative to control
Chain of Dual specificity mitogen-activated protein kinase kinase 6 (Homo sapiens), P52564 [S207D,T211D] (P52564 whole entry S207D/T211D): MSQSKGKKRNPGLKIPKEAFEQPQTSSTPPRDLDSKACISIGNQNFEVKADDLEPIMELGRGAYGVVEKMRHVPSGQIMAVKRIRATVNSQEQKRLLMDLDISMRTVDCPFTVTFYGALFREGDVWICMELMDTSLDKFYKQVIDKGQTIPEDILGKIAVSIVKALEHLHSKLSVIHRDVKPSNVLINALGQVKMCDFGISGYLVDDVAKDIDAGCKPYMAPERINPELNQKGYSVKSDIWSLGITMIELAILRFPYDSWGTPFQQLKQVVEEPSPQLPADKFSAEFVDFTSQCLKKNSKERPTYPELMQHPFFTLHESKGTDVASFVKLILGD

[8] = target: Tyrosine-protein kinase Blk (Homo sapiens) (UniProt P51451); experiment: Inhibition of human BLK assessed as residual activity at 1 uM using polyEY as substrate in presence of 33P-ATP by ProQinase assay relative to control
Chain of Tyrosine-protein kinase Blk (Homo sapiens) (P51451 2-505 limits assumed): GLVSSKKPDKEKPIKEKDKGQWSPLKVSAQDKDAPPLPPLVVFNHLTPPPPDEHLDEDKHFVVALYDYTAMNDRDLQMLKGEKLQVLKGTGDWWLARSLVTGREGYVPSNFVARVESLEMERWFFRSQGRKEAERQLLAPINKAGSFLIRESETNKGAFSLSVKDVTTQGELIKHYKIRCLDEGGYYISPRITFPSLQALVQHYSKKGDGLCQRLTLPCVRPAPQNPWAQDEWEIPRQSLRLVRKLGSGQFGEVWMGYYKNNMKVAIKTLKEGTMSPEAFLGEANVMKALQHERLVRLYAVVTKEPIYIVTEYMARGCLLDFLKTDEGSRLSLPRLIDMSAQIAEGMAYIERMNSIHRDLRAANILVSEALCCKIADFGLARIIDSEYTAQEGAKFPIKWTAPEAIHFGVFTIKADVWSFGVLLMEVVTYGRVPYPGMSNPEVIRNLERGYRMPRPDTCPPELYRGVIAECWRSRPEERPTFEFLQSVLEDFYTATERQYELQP

[9] = test system: Proto-oncogene tyrosine-protein kinase receptor Ret (Homo sapiens), P07949 [V804L]; experiment: Inhibition of human RET V804L mutant assessed as residual activity at 1 uM using polyEY as substrate in presence of 33P-ATP by ProQinase assay relative to control
[10] = Anti-inflammatory activity against human derived high respond PBMC cells assessed as inhibition in stimulated MCP-1 chemokine release at 10 uM incubated for 2 hrs in the presence of LPS/SEB/aCD28 by Luminex based sandwich immunoassay relative to control; format: functional
[11] = target: Tyrosine-protein kinase Yes (Homo sapiens) (UniProt P07947); experiment: Inhibition of YES (unknown origin) assessed as remaining activity at 1 uM by Kinome scan method relative to control
Chain of Tyrosine-protein kinase Yes (Homo sapiens) (P07947 2-543 limits assumed): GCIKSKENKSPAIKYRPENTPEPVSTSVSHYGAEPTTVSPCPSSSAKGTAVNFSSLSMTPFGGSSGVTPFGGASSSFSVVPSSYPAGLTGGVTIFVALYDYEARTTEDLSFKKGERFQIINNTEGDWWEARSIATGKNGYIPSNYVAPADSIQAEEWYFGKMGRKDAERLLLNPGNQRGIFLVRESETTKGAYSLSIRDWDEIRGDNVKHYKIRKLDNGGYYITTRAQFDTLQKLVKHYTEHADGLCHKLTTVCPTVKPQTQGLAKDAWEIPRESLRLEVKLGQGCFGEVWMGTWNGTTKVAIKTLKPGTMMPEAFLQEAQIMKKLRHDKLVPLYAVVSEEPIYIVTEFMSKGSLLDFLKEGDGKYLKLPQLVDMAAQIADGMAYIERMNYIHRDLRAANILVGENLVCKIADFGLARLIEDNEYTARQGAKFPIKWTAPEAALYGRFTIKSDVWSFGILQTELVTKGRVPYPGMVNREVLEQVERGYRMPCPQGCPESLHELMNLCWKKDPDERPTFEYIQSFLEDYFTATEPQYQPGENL

[12] = target: Calcium/calmodulin-dependent protein kinase type II subunit alpha (Homo sapiens) (UniProt Q9UQM7); experiment: Inhibition of CAMK2A (unknown origin) assessed as remaining activity at 1 uM by Kinome scan method relative to control
[13] = target: MAP/microtubule affinity-regulating kinase 3 (Homo sapiens) (UniProt P27448); experiment: Inhibition of human MARK3 assessed as residual activity at 1 uM using RBER-CHKtide as substrate in presence of 33P-ATP by ProQinase assay relative to control
Chain of MAP/microtubule affinity-regulating kinase 3 (Homo sapiens) (P27448 whole entry, looked up): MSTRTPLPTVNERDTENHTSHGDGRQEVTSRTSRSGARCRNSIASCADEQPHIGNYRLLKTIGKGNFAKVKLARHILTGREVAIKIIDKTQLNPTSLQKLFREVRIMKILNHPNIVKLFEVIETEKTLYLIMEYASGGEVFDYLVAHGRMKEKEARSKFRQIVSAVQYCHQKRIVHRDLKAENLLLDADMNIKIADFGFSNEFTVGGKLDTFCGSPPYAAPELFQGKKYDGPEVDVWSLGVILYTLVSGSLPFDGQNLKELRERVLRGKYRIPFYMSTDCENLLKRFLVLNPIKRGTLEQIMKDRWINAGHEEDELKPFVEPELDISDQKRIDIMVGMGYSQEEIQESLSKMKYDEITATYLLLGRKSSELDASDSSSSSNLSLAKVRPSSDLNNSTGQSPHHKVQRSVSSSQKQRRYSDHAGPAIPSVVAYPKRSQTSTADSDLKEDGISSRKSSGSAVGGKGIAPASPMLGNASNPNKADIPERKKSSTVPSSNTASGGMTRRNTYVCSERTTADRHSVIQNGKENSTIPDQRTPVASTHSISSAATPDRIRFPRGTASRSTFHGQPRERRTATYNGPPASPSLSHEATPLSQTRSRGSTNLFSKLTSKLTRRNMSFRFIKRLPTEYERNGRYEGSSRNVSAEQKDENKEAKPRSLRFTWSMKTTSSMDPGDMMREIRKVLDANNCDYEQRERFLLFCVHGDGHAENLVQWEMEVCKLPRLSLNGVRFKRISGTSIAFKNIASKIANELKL

[14] = target: Platelet-derived growth factor receptor alpha (Homo sapiens) (UniProt P16234); experiment: Inhibition of PDGFRalpha (unknown origin) assessed as remaining activity at 1 uM by Kinome scan method relative to control
[15] = test system: Tyrosine-protein kinase ABL1 (Homo sapiens), P00519 [F317I]; experiment: Inhibition of human ABL1 F317I mutant assessed as residual activity at 1 uM using Poly(Ala,Glu,Lys,Tyr)6:2:5:1 as substrate in presence of 33P-ATP by ProQinase assay relative to control
Chain of Tyrosine-protein kinase ABL1 (Homo sapiens), P00519 [F317I] (P00519 whole entry F317I): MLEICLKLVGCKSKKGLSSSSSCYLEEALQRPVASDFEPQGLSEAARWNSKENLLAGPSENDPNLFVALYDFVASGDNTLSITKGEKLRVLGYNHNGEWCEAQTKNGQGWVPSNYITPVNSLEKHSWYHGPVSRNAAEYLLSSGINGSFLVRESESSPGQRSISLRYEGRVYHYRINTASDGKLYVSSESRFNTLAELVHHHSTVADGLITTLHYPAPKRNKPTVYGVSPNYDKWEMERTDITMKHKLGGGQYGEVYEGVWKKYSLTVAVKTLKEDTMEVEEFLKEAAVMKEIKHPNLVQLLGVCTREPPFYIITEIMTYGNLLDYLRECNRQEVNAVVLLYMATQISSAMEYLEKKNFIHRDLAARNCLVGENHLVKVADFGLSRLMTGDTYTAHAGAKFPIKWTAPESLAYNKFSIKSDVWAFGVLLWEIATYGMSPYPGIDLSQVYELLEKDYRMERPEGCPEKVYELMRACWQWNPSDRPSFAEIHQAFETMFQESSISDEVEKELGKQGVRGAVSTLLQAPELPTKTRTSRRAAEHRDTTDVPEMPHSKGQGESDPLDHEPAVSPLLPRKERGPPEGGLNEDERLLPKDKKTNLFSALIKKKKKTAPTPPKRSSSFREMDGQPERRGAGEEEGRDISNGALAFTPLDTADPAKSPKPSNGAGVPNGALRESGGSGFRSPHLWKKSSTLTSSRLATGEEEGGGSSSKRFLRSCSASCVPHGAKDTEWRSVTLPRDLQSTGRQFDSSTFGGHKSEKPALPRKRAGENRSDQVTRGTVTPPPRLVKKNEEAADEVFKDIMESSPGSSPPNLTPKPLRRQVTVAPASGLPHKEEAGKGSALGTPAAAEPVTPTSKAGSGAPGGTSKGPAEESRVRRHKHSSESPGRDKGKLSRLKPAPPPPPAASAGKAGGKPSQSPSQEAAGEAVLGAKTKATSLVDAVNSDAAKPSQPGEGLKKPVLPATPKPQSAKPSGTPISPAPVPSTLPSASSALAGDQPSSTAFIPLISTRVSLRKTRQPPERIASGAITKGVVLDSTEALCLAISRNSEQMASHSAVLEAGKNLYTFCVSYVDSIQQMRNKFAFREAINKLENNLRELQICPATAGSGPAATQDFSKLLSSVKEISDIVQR

[16] = target: Activin receptor type-1 (Homo sapiens) (UniProt Q04771); experiment: Inhibition of ACVR1 (unknown origin) assessed as remaining activity at 1 uM by Kinome scan method relative to control
[17] = test system: Epidermal growth factor receptor (Homo sapiens), P00533 [G719S]; experiment: Inhibition of human EGFR G719S mutant assessed as residual activity at 1 uM using PolyEY as substrate in presence of 33P-ATP by ProQinase assay relative to control
[18] = target: T1, Aurora kinase C (Homo sapiens) (UniProt Q9UQB9); experiment: Inhibition of human AuroraC assessed as residual activity at 1 uM using bio-4xCHKT as substrate in presence of 33P-ATP by ProQinase assay relative to control
T1 sequence (whole entry): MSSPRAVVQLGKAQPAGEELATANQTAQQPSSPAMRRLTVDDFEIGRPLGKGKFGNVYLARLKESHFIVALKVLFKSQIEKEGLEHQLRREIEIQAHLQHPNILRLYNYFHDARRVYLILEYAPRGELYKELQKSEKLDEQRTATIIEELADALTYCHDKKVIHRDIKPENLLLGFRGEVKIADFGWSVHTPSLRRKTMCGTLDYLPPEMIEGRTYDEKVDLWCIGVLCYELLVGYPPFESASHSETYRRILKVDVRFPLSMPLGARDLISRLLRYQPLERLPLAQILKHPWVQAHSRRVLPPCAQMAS

[19] = target: Dual specificity tyrosine-phosphorylation-regulated kinase 1B (Homo sapiens) (UniProt Q9Y463); experiment: Inhibition of human DYRK1B assessed as residual activity at 1 uM using RBER-CHKtide as substrate in presence of 33P-ATP by ProQinase assay relative to control
[20] = Anti-inflammatory activity against human derived high respond PBMC cells assessed as inhibition in stimulated IL-6 cytokine release incubated for 2 hrs in the presence of LPS/SEB/aCD28 by Luminex based sandwich immunoassay; format: functional, cell-based
[21] = target: Non-receptor tyrosine-protein kinase TYK2 (Homo sapiens) (UniProt P29597); experiment: Inhibition of TYK2 JH2 domain (unknown origin) assessed as remaining activity at 1 uM by Kinome scan method relative to control

Chain of Mitogen-activated protein kinase kinase kinase 2 (Homo sapiens) (Q9Y2U5 whole entry): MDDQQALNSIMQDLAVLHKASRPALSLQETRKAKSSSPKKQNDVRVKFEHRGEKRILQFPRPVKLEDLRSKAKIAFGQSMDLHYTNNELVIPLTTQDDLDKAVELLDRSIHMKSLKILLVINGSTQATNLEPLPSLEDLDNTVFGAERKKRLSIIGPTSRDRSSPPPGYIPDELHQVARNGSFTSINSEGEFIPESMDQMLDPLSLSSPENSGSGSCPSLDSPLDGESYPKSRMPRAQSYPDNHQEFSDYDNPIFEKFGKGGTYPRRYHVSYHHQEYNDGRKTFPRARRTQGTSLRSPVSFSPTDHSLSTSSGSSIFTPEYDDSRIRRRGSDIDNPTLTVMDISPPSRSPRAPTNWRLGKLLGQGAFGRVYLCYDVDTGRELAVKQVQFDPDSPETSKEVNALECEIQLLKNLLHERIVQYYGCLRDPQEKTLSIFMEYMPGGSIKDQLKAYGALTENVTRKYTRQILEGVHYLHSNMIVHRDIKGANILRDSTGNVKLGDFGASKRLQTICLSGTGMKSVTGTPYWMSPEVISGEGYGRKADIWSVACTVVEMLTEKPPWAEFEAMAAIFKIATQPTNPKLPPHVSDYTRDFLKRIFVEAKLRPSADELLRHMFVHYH

With `O=C1c2ccc(Nc3ccc(F)cc3F)cc2CCc2ccc(OC[C@H](O)CO)cc21` [Skepinone-L] as the compound, how does the Activity [1] read?
The Activity was 100%.

And the Activity [2]?
Its Activity is 100%.

And the IC50 [3]?
Its IC50 is “Not Active”.

And the Activity [4]?
Its Activity is 96%.

What about the Activity [5] of the same compound?
Its Activity is 100%.

And the Activity [6]?
Its Activity is 87%.

What about the Activity [7] of the same compound?
The Activity was 120%.

And the Activity [8]?
The Activity was 107%.

And the Activity [9]?
The Activity was 115%.

What about the inhibition at 10 µM [10] of the same compound?
The inhibition at 10 µM was 25%.

And the Activity [11]?
The Activity was 97%.

What about the Activity [12] of the same compound?
The Activity was 100%.

What about the Activity [13] of the same compound?
Its Activity is 95%.

And the Activity [14]?
Its Activity is 100%.

What about the Activity [15] of the same compound?
The Activity was 102%.

And the Activity [16]?
Its Activity is 99%.

What about the Activity [17] of the same compound?
Its Activity is 96%.

And the Activity [18]?
Its Activity is 85%.

And the Activity [19]?
Its Activity is 102%.

What about the IC50 [20] of the same compound?
Its IC50 is 650 nM.

And the Activity [21]?
Its Activity is 100%.
